Reference: patent US12559474B2, “Triazine derivatives having virus replication inhibitory activity and pharmaceutical composition comprising the same” (priority 2021, dated 2026)
pEC50, pIC50: −log10 of the molar value. Like-named read-outs stand apart in the source and are kept apart here.

What was measured:
SARS-CoV-2 = assay: microbe, parasite or virus in culture; type: cell-based; conditions: 50% SARS-CoV-2 infected cell death inhibitory concentration, VeroE6/TMPRSS2 cells, 3 days culture
SARS-CoV-2 3CL protease = SARS-CoV-2 3CL protease (Severe acute respiratory syndrome coronavirus 2, UniProt P0DTD1); assay: biochemical; conditions: 50% SARS-CoV-2 3CL protease inhibitory concentration, read-out: IC50
[1] = Severe acute respiratory syndrome coronavirus 2, VeroE6/TMPRSS2, 72 h, class symbols
[2] = Severe acute respiratory syndrome coronavirus 2, VeroE6/TMPRSS2, 72 h, CellTiter-Glo 2.0

Row | SMILES | pEC50 (SARS-CoV-2; [1]) | pIC50 (SARS-CoV-2 3CL protease; given as class symbols) | pEC50 (SARS-CoV-2; [2]) | pIC50 (SARS-CoV-2 3CL protease; RapidFire MS) | pEC50 (SARS-CoV-2; class symbols)
1 | Cc1cncc(-n2c(=O)nc(Nc3cc4cn(C5CCOCC5)nc4cc3Cl)n(Cc3ccc(F)c(C#N)c3)c2=O)c1 [II-0096] | > 6.00 | > 7.00 | – | – | –
2 | N#Cc1cc(Cn2c(Nc3ccc4c(c3)CCO4)nc(=O)n(-c3cncc4ccccc34)c2=O)cc(F)c1F [Compound I-0481] | – | – | 7.36 | 8.57 | –
3 | Cc1cncc(-n2c(=O)nc(Nc3cc4cn(C[C@H](C)O)nc4cc3Cl)n(Cc3cc(F)c(F)cc3F)c2=O)c1 [II-0100] | > 6.00 | > 7.00 | – | – | –
4 | Cn1cc2cc(Nc3nc(=O)n(Cc4ccc[nH]c4=O)c(=O)n3Cc3cc(F)c(F)c(F)c3)c(Cl)cc2n1 [Compound I-0436] | > 6.00 | > 7.00 | – | – | –
5 | Cc1cncc(-n2c(=O)nc(Nc3cc4cn(C)nc4cc3Cl)n(Cc3cc(C#N)c(F)cc3CF)c2=O)c1 [II-0581] | > 6.00 | > 7.00 | – | – | –
6 | Cn1cnc(Cn2c(=O)nc(Nc3cc4cn(C)nc4cc3Cl)n(Cc3cc(F)c(F)c(F)c3)c2=O)n1 [Compound I-0421] | > 6.00 | > 7.00 | 6.35 | 8.00 | –
7 | N#Cc1cc(Cn2c(Nc3ccc4nn(CC(F)F)cc4c3)nc(=O)n(-c3cncc(Cl)c3)c2=O)ccc1F [II-0415] | – | – | 6.06 | 7.82 | –
8 | O=c1nc(Nc2cc3cn(CCO)nc3cc2Cl)n(Cc2cc(F)c(F)c(F)c2)c(=O)n1-c1cncc2ccccc12 [Compound I-0288] | – | – | 6.13 | 8.24 | –
9 | CC(=O)Nc1nc2cc(Cl)c(Nc3nc(=O)n(Cc4ncn(C)n4)c(=O)n3Cc3cc(Cl)c(F)cc3F)cc2s1 [II-0554] | 5.00 to 6.00 | > 7.00 | – | – | –
10 | COc1ccc(Nc2nc(=O)n(Cc3ccc[nH]c3=O)c(=O)n2Cc2cc(F)c(F)c(Cl)c2)c(Cl)c1 [Compound I-0255] | > 6.00 | > 7.00 | – | – | –
11 | O=C1CC=CC=C1Cn1c(=O)nc(Nc2cc3cn(C4CCOCC4)nc3cc2Cl)n(Cc2cc(F)c(F)c(F)c2)c1=O [Compound I-0451] | 5.00 to 6.00 | > 7.00 | – | – | –
12 | O=c1[nH]cc(Cl)cc1Cn1c(=O)nc(Nc2cc3cn(CCCO)nc3cc2Cl)n(Cc2cc(F)c(F)c(F)c2)c1=O [Compound I-0454] | 5.00 to 6.00 | > 7.00 | – | – | –
13 | O=c1[nH]cccc1Cn1c(=O)nc(Nc2cc3c(cc2Cl)OCCC3)n(Cc2cc(F)c(F)c(F)c2)c1=O [Compound I-0372] | > 6.00 | > 7.00 | – | – | –
14 | Cn1cc2cc(Nc3nc(=O)n(-c4cncc5c4COC5)c(=O)n3Cc3cc(Cl)c(F)cc3F)c(Cl)cc2n1 [II-0499] | – | – | 6.17 | 7.92 | –
15 | Cn1cc2cc(Nc3nc(=O)n(-c4cncc(Cl)c4)c(=O)n3Cc3cc(F)c(F)cc3F)ccc2n1 [II-0288] | – | – | 5.62 | 7.00 | –
16 | COc1cc(Cl)c(Nc2nc(=O)n(-c3cncc(C)c3)c(=O)n2Cc2ccc(F)c(C#N)c2)cn1 [II-0479] | 5.00 to 6.00 | > 7.00 | – | – | –
17 | Cn1cnc(Cn2c(=O)nc(Nc3cc4cn(C5CCOCC5)nc4cc3Cl)n(Cc3cc(Cl)c(F)cc3F)c2=O)n1 [II-0098] | 5.00 to 6.00 | > 7.00 | – | – | –
18 | Cn1cc2cc(Nc3nc(=O)n(-c4cncc(C#N)c4)c(=O)n3Cc3cc(F)c(F)c(Cl)c3)c(Cl)cc2n1 [II-0489] | 5.00 to 6.00 | > 7.00 | – | – | –
19 | Cc1cncc(-n2c(=O)nc(Nc3cc4cn(CC(F)F)nc4cc3Cl)n(Cc3cc(Cl)c(F)cn3)c2=O)c1 [II-0586] | > 6.00 | > 7.00 | – | – | –
20 | CC(C)(O)Cn1cc2cc(Nc3nc(=O)n(Cc4ncccn4)c(=O)n3Cc3cc(F)c(F)c(Cl)c3)c(Cl)cc2n1 [II-0241] | – | – | 5.86 | 7.62 | –
21 | Cn1cnc(Cn2c(=O)nc(Nc3cc4c(F)n(C)nc4cc3Cl)n(Cc3cc(F)c(F)cc3F)c2=O)n1 [II-0455] | – | – | 6.12 | 7.72 | –
22 | CCn1cc2cc(Nc3nc(=O)n(-c4cncc(Cl)c4)c(=O)n3Cc3cc(C#N)ccc3C)ccc2n1 [II-0034] | – | – | 6.63 | 8.14 | –
23 | O=c1[nH]c2ncccc2cc1Cn1c(=O)nc(Nc2cc3cn(CCO)nc3cc2Cl)n(Cc2cc(F)c(F)c(F)c2)c1=O [Compound I-0237] | – | – | 5.47 | 8.38 | –
24 | COc1ccc(Nc2nc(=O)n(Cc3ccc[nH]c3=O)c(=O)n2Cc2ccc(F)c(C#N)c2)c(Cl)c1 [Compound I-0331] | 5.00 to 6.00 | > 7.00 | – | – | –
25 | Cc1cncc(-n2c(=O)nc(Nc3cc4cn(C)nc4cc3Cl)n(Cc3cc(C#N)c(F)cc3OCC(C)C)c2=O)c1 [II-0071] | > 6.00 | > 7.00 | – | – | –
26 | Cc1cncc(-n2c(=O)nc(Nc3cc4c(cc3Cl)OC(C)C4)n(Cc3ccc(F)c(C#N)c3)c2=O)c1 (stereo not shown) [II-0117] | – | > 7.00 | – | – | > 6.00
27 | Cc1cncc(-n2c(=O)nc(Nc3ccc4nn(C)cc4c3)n(Cc3cc(F)c(F)cc3F)c2=O)c1 [II-0111] | – | – | 5.72 | 7.11 | –
28 | Cc1cncc(-n2c(=O)nc(Nc3cc4cn(C)nc4cc3Cl)n(Cc3ccc(F)c(F)c3F)c2=O)c1 [II-0175] | > 6.00 | > 7.00 | – | – | –
